From patent publication US10125138B2, “Triazolotriazinone derivatives having activity a s herbicides” (Syngenta Participations AG, priority 2015, dated 2018)

Legend:
Assay type in all cases: in vivo
Conditions in all cases: 1000 g/h, evaluated after 13 days, five point scale
[1] = tested on: Amaranthus retoflexus (AMARE); assay: Post-emergence glasshouse herbicide test, Amaranthus retoflexus
Experimental: (§1) Seeds of a variety of test species are sown in standard soil in pots (Lolium perenne (LOLPE), Solanum nigrum (SOLNI), Amaranthus retoflexus (AMARE), Setaria faberi (SETFA), Echinochloa crus-galli (ECHCG), Ipomoea hederacea (IPOHE)). After cultivation for one day (pre-emergence) or after 8 days cultivation (post-emergence) under controlled conditions in a glasshouse (at 24/16° C., day/night; 14 hours light; 65% humidity), the plants are sprayed with an aqueous spray solution derived from the formulation of the technical active ingredient in acetone/water (50:50) solution containing 0.5% Tween 20 (polyoxyethelyene sorbitan monolaurate, CAS RN 9005-64-5). […] The test plants are then grown in a glasshouse under controlled conditions in a glasshouse (at 24/16° C., day/night; 14 hours light; 65% humidity) and watered twice daily. After 13 days for pre and post-emergence, the test is evaluated for the percentage damage caused to the plant. The biological activities are shown in the following table on a five point scale (5=80-100%; 4=60-79%; 3=40-59%; 2=20-39%; 1=0-19%).

[2] = tested on: Lolium perenne (LOLPE); assay: Pre-emergence glasshouse herbicide test, Lolium perenne
Experimental: as §1

[3] = tested on: Lolium perenne (LOLPE); assay: Post-emergence glasshouse herbicide test, Lolium perenne
Experimental: as §1

[4] = tested on: Setaria faberi (SETFA); assay: Post-emergence glasshouse herbicide test, Setaria faberi
Experimental: as §1

[5] = tested on: Amaranthus retoflexus (AMARE); assay: Pre-emergence glasshouse herbicide test, Amaranthus retoflexus
Experimental: as §1

[6] = tested on: Setaria faberi (SETFA); assay: Pre-emergence glasshouse herbicide test, Setaria faberi
Experimental: as §1

[7] = tested on: Ipomoea hederacea (IPOHE); assay: Pre-emergence glasshouse herbicide test, Ipomoea hederacea
Experimental: as §1

[8] = tested on: Solanum nigrum (SOLNI); assay: Pre-emergence glasshouse herbicide test, Solanum nigrum
Experimental: (§2) Seeds of a variety of test species are sown in standard soil in pots (Lolium perenne (LOLPE), Solanum nigrum (SOLNI), Amaranthus retoflexus (AMARE), Setaria faberi (SETFA), Echinochloa crus-galli (ECHCG), Ipomoea hederacea (IPOHE)). After cultivation for one day (pre-emergence) or after 8 days cultivation (post-emergence) under controlled conditions in a glasshouse (at 24/16° C., day/night; 14 hours light; 65% humidity), the plants are sprayed with an aqueous spray solution derived from the formulation of the technical active ingredient in acetone/water (50:50) solution containing 0.5% Tween 20 (polyoxyethelyene sorbitan monolaurate, CAS RN 9005-64-5). Compounds are applied at 1000 g/h. The test plants are then grown in a glasshouse under controlled conditions in a glasshouse (at 24/16° C., day/night; 14 hours light; 65% humidity) and watered twice daily. After 13 days for pre and post-emergence, the test is evaluated for the percentage damage caused to the plant. The biological activities are shown in the following table on a five point scale (5=80-100%; 4=60-79%; 3=40-59%; 2=20-39%; 1=0-19%).

[9] = tested on: Solanum nigrum (SOLNI); assay: Post-emergence glasshouse herbicide test, Solanum nigrum
Experimental: as §2

[10] = tested on: Ipomoea hederacea (IPOHE); assay: Post-emergence glasshouse herbicide test, Ipomoea hederacea
Experimental: as §1

[11] = tested on: Echinochloa crus-galli (ECHCG); assay: Pre-emergence glasshouse herbicide test, Echinochloa crus-galli
Experimental: as §1

[12] = tested on: Echinochloa crus-galli (ECHCG); assay: Post-emergence glasshouse herbicide test, Echinochloa crus-galli
Experimental: as §1

SMILES | percentage damage caused to the plant, POST Application AMARE [1] | percentage damage caused to the plant, PRE Application LOLPE [2] | percentage damage caused to the plant, POST Application LOLPE [3] | percentage damage caused to the plant, POST Application SETFA [4] | percentage damage caused to the plant, PRE Application AMARE [5] | percentage damage caused to the plant, PRE Application SETFA [6] | percentage damage caused to the plant, PRE Application IPOHE [7] | percentage damage caused to the plant, PRE Application SOLNI [8] | percentage damage caused to the plant, POST Application SOLNI [9] | percentage damage caused to the plant, POST Application IPOHE [10] | percentage damage caused to the plant, PRE Application ECHCG [11] | percentage damage caused to the plant, POST Application ECHCG [12]
Cn1nnnc1NC(=O)c1nn2cnn(-c3ccccc3)c2nc1=O [Compound 1.001] | 5 (5=80-100%) | 3 (3=40-59%) | 3 (3=40-59%) | 5 (5=80-100%) | 5 (5=80-100%) | 5 (5=80-100%) | 4 (4=60-79%) | 5 (5=80-100%) | 5 (5=80-100%) | 5 (5=80-100%) | 5 (5=80-100%) | 5 (5=80-100%)
Cn1nnnc1NC(=O)c1nn2cnn(-c3ccc(F)cc3)c2nc1=O [Compound 1.002] | 5 (5=80-100%) | 4 (4=60-79%) | 5 (5=80-100%) | 5 (5=80-100%) | 5 (5=80-100%) | 5 (5=80-100%) | 5 (5=80-100%) | 5 (5=80-100%) | 5 (5=80-100%) | 5 (5=80-100%) | 5 (5=80-100%) | 5 (5=80-100%)
COc1ccc(-n2ncn3nc(C(=O)Nc4nnnn4C)c(=O)nc23)cc1 [Compound 1.003] | 5 (5=80-100%) | 4 (4=60-79%) | 4 (4=60-79%) | 5 (5=80-100%) | 5 (5=80-100%) | 5 (5=80-100%) | 5 (5=80-100%) | 5 (5=80-100%) | 5 (5=80-100%) | 5 (5=80-100%) | 5 (5=80-100%) | 5 (5=80-100%)
CCCn1ncn2nc(C(=O)Nc3nnnn3C)c(=O)nc12 [Compound 1.007] | 5 (5=80-100%) | 4 (4=60-79%) | 3 (3=40-59%) | 5 (5=80-100%) | 5 (5=80-100%) | 5 (5=80-100%) | 4 (4=60-79%) | 5 (5=80-100%) | 5 (5=80-100%) | 5 (5=80-100%) | 5 (5=80-100%) | 5 (5=80-100%)
Cn1nnnc1NC(=O)c1nn2cnn(CCCC(F)(F)F)c2nc1=O [Compound 1.011] | 5 (5=80-100%) | 2 (2=20-39%) | 3 (3=40-59%) | 5 (5=80-100%) | 5 (5=80-100%) | 5 (5=80-100%) | 4 (4=60-79%) | 4 (4=60-79%) | 4 (4=60-79%) | 5 (5=80-100%) | 4 (4=60-79%) | 5 (5=80-100%)
